{"source": "patent US20240210394A1", "about": "“MICROORGANISM CAPTURE FROM ANTIMICROBIAL-CONTAINING SOLUTION” (MOMENTUM BIOSCIENCE LIMITED, priority 2019, published 2024)", "key": {"E. coli [1]": {"system": "E. coli", "assay": "Confirm PCR multiplex (microbial DNA, GrNeg channel) after microbial capture", "format": "cell-based", "design": "key: Ct values (qPCR cycle threshold)"}, "E. coli [2]": {"system": "E. coli", "assay": "Blood culture time to positivity (flip time), bead rescue vs no-rescue control", "format": "cell-based", "conditions": "Piperacillin 96 ug/mL blood; for Flip time in Days: No bead rescue Control BC; for Time to positivity in days: 1800 cfu/5 ml"}}, "note": "Several values for one entry are separate records, joined by “and”; a condition that tells them apart may be missing. Equal values may be shown once.", "data": [{"compound": "Sodium polyanethol sulfonate [SPS]", "values": [{"measurement": "Confirm GrNeg results", "setting": "E. coli [1]; WB SPS 0.01 %, EC 1-3 replicates", "value": "27.94 and 29.18 and 28.32"}, {"measurement": "Confirm GrNeg results", "setting": "E. coli [1]; WB SPS 0.01 %, NSC 1-3 replicates", "value": "NoCt"}, {"measurement": "Confirm GrNeg results", "setting": "E. coli [1]; WB SPS 0.02 %, EC 1-3 replicates", "value": "29.15 and 28.16 and 29.75"}, {"measurement": "Confirm GrNeg results", "setting": "E. coli [1]; WB SPS 0.02 %, NSC 1-3 replicates", "value": "NoCt"}, {"measurement": "Confirm GrNeg results", "setting": "E. coli [1]; WB SPS 0.04 %, EC 1-3 replicates", "value": "28.71 and 28.75 and 29.82"}, {"measurement": "Confirm GrNeg results", "setting": "E. coli [1]; WB SPS 0.04 %, NSC 1-3 replicates", "value": "NoCt"}, {"measurement": "Confirm GrNeg results", "setting": "E. coli [1]; WB SPS 0.06 %, EC 1-3 replicates", "value": "31.58 and 29.77 and 29.26"}, {"measurement": "Confirm GrNeg results", "setting": "E. coli [1]; WB SPS 0.06 %, NSC 1-3 replicates", "value": "NaCt and NoCt (2×)"}, {"measurement": "Confirm GrNeg results", "setting": "E. coli [1]; WB SPS 0.08 %, EC 1-3 replicates", "value": "29.20 and 29.80 and 28.87"}, {"measurement": "Confirm GrNeg results", "setting": "E. coli [1]; WB SPS 0.08 %, NSC 1-3 replicates", "value": "NoCt"}, {"measurement": "Confirm GrNeg results", "setting": "E. coli [1]; WB SPS 0.1 %, EC 1-3 replicates", "value": "29.27 and 28.65 and 29.61"}, {"measurement": "Confirm GrNeg results", "setting": "E. coli [1]; WB SPS 0.1 %, NSC 1-3 replicates", "value": "47.82 and NoCt (2×)"}]}, {"compound": "CCN1CCN(C(=O)N[C@@H](C(=O)N[C@@H]2C(=O)N3[C@@H]2SC(C)(C)[C@@H]3C(=O)O)c2ccccc2)C(=O)C1=O", "note": "[Piperacillin]", "values": [{"measurement": "Flip time in Days", "setting": "E. coli [2]; 50000 cfu/5 mL", "value": "Neg"}, {"measurement": "Flip time in Days", "setting": "E. coli [2]; 150000 cfu/5 mL", "value": "Neg"}, {"measurement": "Time to positivity in days", "setting": "E. coli [2]; Control (no beads)", "value": "Neg"}, {"measurement": "Time to positivity in days", "setting": "E. coli [2]; with magnetic beads in the bottle", "value": "Neg"}]}]}
